Experimental data taken from patent US8623862B2, “Derivatives of N-[(1H-pyrazol-1-yl)aryl]-1H-indole or 1H-indazole-3-carboxamide, preparation thereof and applications thereof in therapeutics” (Sanofi, priority 2011, dated 2014).
Where a name gives a salt, the structure may show the parent alone. Read-outs that look alike come from different tables or passages of the source.

Legend:
platelet aggregation [1] = test: Inhibition of platelet aggregation in vitro (rat blood); type: cell-based;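 as to Inhibition of platelet aggregation in vitro (rat blood) in μM: aggregation induced by ADP added as 4 µL of a 250 µM solution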
Method in brief: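 Platelet-rich plasma from male Sprague-Dawley rats (250-300 g), prepared by centrifugation at 300 g for 5 minutes. Aggregation measured at 37° C in an aggregometer. Percentage inhibition derived from area under the absorbance curve over 6 minutes.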

platelet aggregation [2] = test: Inhibition of platelet aggregation ex vivo (rat blood); type: in vivo; conditions: for inhibition at 10 mg/kg: read-out: Inhibition of platelet aggregation ex vivo (rat blood) in %, Gavage (oral) 10 mg/kg
Experimental: Inhibition of Platelet Aggregation Ex Vivo (Rat Blood)
Male rats of the Sprague-Dawley strain, weighing 250-300 g, are used at a rate of 6 animals per batch. Each test compound is diluted in a solution of glucose-containing water (glucose 5%) containing 5% of cremophore and 3% of glycofurol.
The compounds according to the invention are administered by stomach tube (10 ml/kg at 1 mg/ml) two hours before taking the sample or by infusion (1 ml/kg at 10 mg/ml) two hours before taking the sample.
The platelet-rich plasma (PRP) is obtained by centrifugation of the blood at 300 g for 5 minutes, and the measurements of platelet aggregation are performed as described above.
The results are calculated using the area under the curve of absorbance measured for 6 minutes, and expressed as percentage (%) of inhibition.

[3] = rat platelet-rich plasma, ADP-induced aggregation, area under the curve of absorbance for 6 minutes, read-out: Inhibition of platelet aggregation in vitro (rat blood);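 as to Inhibition of platelet aggregation in vitro (rat blood) in μM: aggregation induced by ADP added as 4 µL of a 250 µM solution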
[4] = rat, 10 mg/kg, two hours before taking the sample
[5] = Rattus norvegicus, Platelet, 0.1 h, read-out: Inhibition of platelet aggregation in vitro (rat blood) in μM
[6] = Rattus norvegicus, Platelet, po, 2 h
[7] = Platelet, 2 h, rat, gavage (oral), 10 mg/kg, two hours before taking the sample
[8] = rat blood, in vitro, read-out: Inhibition of platelet aggregation in vitro (rat blood);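 as to Inhibition of platelet aggregation in vitro (rat blood) in μM: aggregation induced by ADP added as 4 µL of a 250 µM solution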
[9] = rat, gavage (oral), 10 mg/kg, two hours before taking the sample
[10] = 0.1 h, rat platelet-rich plasma, ADP-induced aggregation, area under the curve of absorbance for 6 minutes, read-out: Inhibition of platelet aggregation in vitro (rat blood);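 as to Inhibition of platelet aggregation in vitro (rat blood) in μM: aggregation induced by ADP added as 4 µL of a 250 µM solution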

SMILES | IC50 (platelet aggregation [1]; [3]) [µM] | IC50 (platelet aggregation [1]; [8]) [µM] | Inhibition of platelet aggregation ex vivo (rat blood) in %, Gavage (oral) 10 mg/kg (platelet aggregation [2]; [9]) [%] | also measured
CCCC(=O)c1cnn(-c2ccc(NC(=O)c3cn(CC(=O)N4CC(C)N(CCOC)C(C)C4)c4ccc(Cl)cc34)cc2)c1C.Cl (stereo not shown) |  |  |  | melting point: 187 °C
CCCC(=O)c1cnn(-c2ccc(NC(=O)c3cn(CC(=O)N4CCN(C)CC4)c4ccc(Cl)cc34)nn2)c1C [Compound 28, N-[6-(4-Butyryl-5-methyl-1H-pyrazol-1-yl)pyridazin-3-yl]-5-chloro-1-[2-(4-methylpiperazin-1-yl)-2-oxoethyl]-1H-indole-3-carboxamide hydrochloride] |  |  |  | IC50 (platelet aggregation [1]; [5]): 0.06 µM; inhibition at 3 mg/kg (platelet aggregation [2]; Rattus norvegicus, Platelet, iv, 2 h, read-out: Inhibition of platelet aggregation ex vivo (rat blood) in %, Infusion (Intravenous) 3 mg/kg): 79%; inhibition at 10 mg/kg (platelet aggregation [2]; [6]): 73.5%
CCCC(=O)c1cnn(-c2ccc(NC(=O)c3cn(CC(=O)N4CCN(CCOC)CC4)c4ccc(Cl)cc34)nn2)c1C [Compound 29, N-[6-(4-Butyryl-5-methyl-1H-pyrazol-1-yl)pyridazin-3-yl]-5-chloro-1-{2-[4-(2-methoxyethyl)piperazin-1-yl]-2-oxoethyl}-1H-indole-3-carboxamide hydrochloride] |  |  |  | IC50 (platelet aggregation [1]; [5]): 0.08 µM; inhibition at 1 mg/kg (platelet aggregation [2]; Rattus norvegicus, Platelet, iv, 2 h, read-out: Inhibition of platelet aggregation ex vivo (rat blood) in %, Infusion (Intravenous) 1 mg/kg): 76%; inhibition at 10 mg/kg (platelet aggregation [2]; [6]): 86.3%
CCCC(=O)c1cnn(-c2ccc(NC(=O)c3cn(CC(=O)N4CCN(CCOC)CC4)c4ccc(Cl)cc34)cc2)c1C [Compound 105, N-[4-(4-Butyryl-5-methyl-1H-pyrazol-1-yl)phenyl]-5-chloro-1-{2-[4-(2-methoxyethyl)piperazin-1-yl]-2-oxoethyl}-1H-indole-3-carboxamide hydrochloride] |  |  |  | IC50 (platelet aggregation [1]; Platelet, rat blood, in vitro, read-out: Inhibition of platelet aggregation in vitro (rat blood)): 0.32 µM; inhibition at 10 mg/kg (platelet aggregation [2]; [7]): 67.9%
CCCC(=O)c1cnn(-c2ccc(NC(=O)c3cn(CC(=O)N4CCN(C)CC4)c4cc(C)c(C)cc34)cc2)c1C.Cl [Compound 107] |  | 0.3 | 36.8 | Inhibition of platelet aggregation ex vivo (rat blood) in %, Infusion (Intravenous) 10 mg/kg (platelet aggregation [2]; [4]): 57.8%
CCCC(=O)c1cnn(-c2ccc(NC(=O)c3cn(CC(=O)N4CCN(C)CC4)c4ccc(Cl)cc34)cc2)c1C.Cl [Compound 115] |  | 0.32 | 50.6 | Inhibition of platelet aggregation ex vivo (rat blood) in %, Infusion (Intravenous) 10 mg/kg (platelet aggregation [2]; [4]): 78.2%
CCCC(=O)c1cnn(-c2ccc(NC(=O)c3cn(CC(=O)N4CCN(CCOC)CC4)c4ccc(C)cc34)cc2)c1C.Cl [Compound 119] |  | 0.18 | 61.1 | 
CCCC(=O)c1cnn(-c2ccc(NC(=O)c3cn(CC(=O)N4CCN(Cc5ccc(F)cc5)CC4)c4ccc(C)cc34)cc2)c1C.Cl [Compound 147] |  | 0.19 | 74.9 | 
CCCC(=O)c1cnn(-c2ccc(NC(=O)c3cn(CC(=O)N4CCN(Cc5cc(C)on5)CC4)c4ccc(Cl)cc34)cc2)c1C.Cl [Compound 166] |  |  | 72.0 | 
CCCC(=O)c1cnn(-c2ccc(NC(=O)c3cn(CC(=O)N4CCCC4C(F)(F)F)c4ccc(Cl)cc34)cc2)c1C (stereo not shown) [Compound 170] |  | 0.12 | 71.5 | 
CCCC(=O)c1cnn(-c2ccc(NC(=O)c3cn(CC(=O)N4CCN(C)CC4C)c4ccc(Cl)cc34)cc2)c1C.Cl (stereo not shown) [Compound 177] |  | 0.37 | 63.9 | 
CCCC(=O)c1cnn(-c2ccc(NC(=O)c3cn(CC(=O)N4CCN(C)CC4)c4ccc(Cl)cc34)c(C#N)c2)c1C [Compound 219] |  | 0.54 | 65.1 | 
CCCC(=O)c1cnn(-c2ccc(NC(=O)c3cn(CC(=O)N4CCC(NC)CC4)c4ccc(C)cc34)cc2)c1C [Compound 248] | 0.32 |  |  | 
CCCC(=O)c1cnn(-c2ccc(NC(=O)c3cn(CC(=O)N4CCCC(NC)C4)c4ccc(C)cc34)cc2)c1C (stereo not shown) [Compound 251] | 0.54 |  |  | 
CCCC(=O)c1cnn(-c2ccc(NC(=O)c3cn(CC(=O)N4CC5CNCC5C4)c4ccc(C)cc34)cc2)c1C (stereo not shown) [Compound 255] | 0.18 |  |  | 
CCCC(=O)c1cnn(-c2ccc(NC(=O)c3cn(CC(=O)NC4CCCN(C)C4)c4ccc(C)cc34)cc2)c1C (stereo not shown) [Compound 267] |  |  |  | IC50 (platelet aggregation [1]; [10]): 0.45 µM
CCCC(=O)c1cnn(-c2ccc(NC(=O)c3cn(CC(=O)N4CCN(C)C(C)C4)c4ccc(C)cc34)cc2)c1C (stereo not shown) [Compound 269] | 0.35 |  |  | 
CCCC(=O)c1cnn(-c2ccc(NC(=O)c3cn(CC(=O)N4CCN(C)C(C(=O)NC)C4)c4ccc(Cl)cc34)cc2)c1C (stereo not shown) [Compound 272, N-[4-(4-butyryl-5-methyl-1H-pyrazol-1-yl)phenyl]-5-chloro-1-{2-[4-methyl-3-(methylcarbamoyl)piperazin-1-yl]-2-oxoethyl}-1H-indole-3-carboxamide] |  |  |  | IC50 (platelet aggregation [1]; [10]): 0.21 µM; melting point: 274 °C
CCCC(=O)c1cnn(-c2ccc(NC(=O)c3cn(CC(=O)N4CCN5CCNC(=O)C5C4)c4ccc(Cl)cc34)cc2)c1C.Cl (stereo not shown) [Compound 273, N-[4-(4-Butyryl-5-methyl-1H-pyrazol-1-yl)phenyl]-5-chloro-1-[2-oxo-2-(9-oxooctahydro-2H-pyrazino[1,2-a]pyrazin-2-yl)ethyl]-1H-indole-3-carboxamide hydrochloride] |  |  |  | IC50 (platelet aggregation [1]; [10]): 0.29 µM; melting point: 230 °C
CCCC(=O)c1cnn(-c2ccc(NC(=O)c3cn(CC(=O)N4CCN5CCN(C)C(=O)C5C4)c4ccc(Cl)cc34)cc2)c1C (stereo not shown) [Compound 274, N-[4-(4-Butyryl-5-methyl-1H-pyrazol-1-yl)phenyl]-5-chloro-1-[2-(8-methyl-9-oxooctahydro-2H-pyrazino[1,2-a]pyrazin-2-yl)-2-oxoethyl]-1H-indole-3-carboxamide hydrochloride] |  |  |  | IC50 (platelet aggregation [1]; [10]): 0.1 µM; inhibition at 10 mg/kg (platelet aggregation [2]; [7]): 82.7%

Second part, led by results:

IC50 (platelet aggregation [1]; [3]) [µM] | IC50 (platelet aggregation [1]; [8]) [µM] | SMILES | Inhibition of platelet aggregation ex vivo (rat blood) in %, Gavage (oral) 10 mg/kg (platelet aggregation [2]; [9]) [%] | also measured
9.6 |  | CCCC(=O)c1cnn(-c2ccc(NC(=O)c3cn(CC(=O)O)c4ccc(C)cc34)cc2)c1C [Compound 11] |  | Inhibition of platelet aggregation ex vivo (rat blood) in %, Infusion (Intravenous) 10 mg/kg (platelet aggregation [2]; [4]): 40.7%
 | 0.32 | CCCC(=O)c1cnn(-c2ccc(NC(=O)c3cn(CC(=O)N4CCN(CCF)CC4)c4ccc(C)cc34)cc2)c1C.Cl [Compound 133] | 74.2 | 
 | 0.13 | CCCC(=O)c1cnn(-c2ccc(NC(=O)c3cn(CC(=O)N4CCN(CCF)CC4)c4ccc(Cl)cc34)cc2)c1C.Cl [Compound 142] | 76.5 | 
 | 0.25 | CCCC(=O)c1cnn(-c2ccc(NC(=O)c3cn(CC(=O)N4CCN(CCOCCOC)CC4)c4ccc(Cl)cc34)cc2)c1C.Cl [Compound 145] | 53.7 | 
 | 0.17 | CCCC(=O)c1cnn(-c2ccc(NC(=O)c3cn(CC(=O)N4CCN(C(C)COC)CC4)c4ccc(Cl)cc34)cc2)c1C.Cl (stereo not shown) [Compound 179] | 76.1 | 
 | 0.24 | CCCC(=O)c1cnn(-c2ccc(NC(=O)c3cn(CC(=O)N4CCN(C(C)(C)COC)CC4)c4ccc(Cl)cc34)cc2)c1C.Cl [Compound 180] | 65.1 | 
0.24 |  | CCCC(=O)c1cnn(-c2ccc(NC(=O)c3cn(CC(=O)N4CCNC(CO)C4)c4ccc(C)cc34)cc2)c1C (stereo not shown) [Compound 249] |  | 
0.61 |  | CCCC(=O)c1cnn(-c2ccc(NC(=O)c3cn(CC(=O)N4CCC(NC)C4)c4ccc(C)cc34)cc2)c1C (stereo not shown) [Compound 250] |  | 
0.4 |  | CCCC(=O)c1cnn(-c2ccc(NC(=O)c3cn(CC(=O)N4CCC(N)CC4)c4ccc(C)cc34)cc2)c1C [Compound 252] |  | 
0.19 |  | CCCC(=O)c1cnn(-c2ccc(NC(=O)c3cn(CC(=O)N4CCNCC4CO)c4ccc(C)cc34)cc2)c1C (stereo not shown) [Compound 254] |  | 
0.23 |  | CCCC(=O)c1cnn(-c2ccc(NC(=O)c3cn(CC(=O)N4CCNCC4)c4ccc(Cl)cc34)cc2)c1C [Compound 256] |  | 
0.46 |  | CCCC(=O)c1cnn(-c2ccc(NC(=O)c3cn(CC(=O)N4CCNC(C)C4)c4ccc(Cl)cc34)cc2)c1C (stereo not shown) [Compound 257] |  | 
0.3 |  | CCCC(=O)c1cnn(-c2ccc(NC(=O)c3cn(CC(=O)N4CCNCC4C)c4ccc(Cl)cc34)cc2)c1C (stereo not shown) [Compound 258] |  | 
0.42 |  | CCCC(=O)c1cnn(-c2ccc(NC(=O)c3cn(CC(=O)N4CC(C)N(C)C(C)C4)c4ccc(C)cc34)cc2)c1C (stereo not shown) [Compound 263] |  | 
0.56 |  | CCCC(=O)c1cnn(-c2ccc(NC(=O)c3cn(CC(=O)N4CC5CC4CN5C)c4ccc(C)cc34)cc2)c1C (stereo not shown) [Compound 264] |  | 
0.79 |  | CCCC(=O)c1cnn(-c2ccc(NC(=O)c3cn(CC(=O)N4CC5CCN(C)C5C4)c4ccc(C)cc34)cc2)c1C (stereo not shown) [Compound 265] |  | 
0.4 |  | CCCC(=O)c1cnn(-c2ccc(NC(=O)c3cn(CC(=O)N4CC5CN(C)CC5C4)c4ccc(C)cc34)cc2)c1C (stereo not shown) [Compound 266] |  | 
0.24 |  | CCCC(=O)c1cnn(-c2ccc(NC(=O)c3cn(CC(=O)N4CCN(C)C(CO)C4)c4ccc(C)cc34)cc2)c1C (stereo not shown) [Compound 268] |  | 
